These results are taken from patent publication US4013791A, “Peptides having an antihypertensive effect” (Hoechst Aktiengesellschaft, priority 1974, dated 1977).

For test [1], the system named is angiotensin II (AT II). Kind of test: Potency of AT II analogs: inhibition of the increase in blood pressure caused by AT II, with and without infusion of the analog. It counts as in vivo. The settings on record: for Inhibiting effect in percent, 0.5mcg/kg i.v. AT II: AT II 0.5mcg/kg i.v.; for Inhibiting effect in percent, 1mcg/kg i.v. AT II: AT II 1mcg/kg i.v.; for Inhibiting effect in percent, 2mcg/kg i.v. AT II: AT II 2mcg/kg i.v. How it is done: (§1) The potency of the AT II analogs is determined by measuring the increase in blood pressure caused by increasing amounts of AT II with and without infusion of the analog to be tested, at different dosages; duration of action is determined on the basis of the time during which a single injection of the analog to be tested is effective under permanent infusion of AT II.

Test [2] has as its system angiotensin II (AT II). Kind of test: Duration of action of a single injection of the analog under permanent infusion of AT II. Format: in vivo. The settings on record: single injection 0.1mg/kg i.v. under permanent infusion of AT II. How it is done:
as §1

[3] abbreviates: analog infusion 1 mcg/kg/min i.v.
[4] abbreviates: analog infusion 5 mcg/kg/min i.v.
[5] abbreviates: analog infusion 10mcg/kg/min i.v.

As to “[1-sarcosine,5-valine, 8-alanine] angiotensin II [[Sar^1,Val^5 Ala^8] AT II]”, in the test with angiotensin II (AT II) [1] (setting [3]), the “Inhibiting effect in percent, 0.5mcg/kg i.v. AT II” value is 0%; the “Inhibiting effect in percent, 1mcg/kg i.v. AT II” value is 22%; the “Inhibiting effect in percent, 2mcg/kg i.v. AT II” value was determined as 31%. In addition, in the test on angiotensin II (AT II) [1] (setting [4]), the “Inhibiting effect in percent, 0.5mcg/kg i.v. AT II” value stood at 63%; the “Inhibiting effect in percent, 1mcg/kg i.v. AT II” value stood at 76%; the “Inhibiting effect in percent, 2mcg/kg i.v. AT II” value turned out to be 75%. Also, in the test with angiotensin II (AT II) [1] (setting [5]), the “Inhibiting effect in percent, 0.5mcg/kg i.v. AT II” value was determined as 88%; the “Inhibiting effect in percent, 1mcg/kg i.v. AT II” value was found to be 90%; the “Inhibiting effect in percent, 2mcg/kg i.v. AT II” value is 89%. Moreover, the “duration of action in min. 0.1mg/kg i.v.” value in the test with angiotensin II (AT II) [2] is 66 ± 21 min.

As for “Succinamoyl--Arg--Val--Tyr--Val--His--Pro--Phegly--OH [[Suc^1,Val^5 pgl^8] AT II]”, the “Inhibiting effect in percent, 0.5mcg/kg i.v. AT II” value came out at 42% in the test with angiotensin II (AT II) [1] (setting [3]), 88% with angiotensin II (AT II) [1] (setting [4]) and 98% with angiotensin II (AT II) [1] (setting [5]). Further, the “Inhibiting effect in percent, 1mcg/kg i.v. AT II” value stood at 51% in the test on angiotensin II (AT II) [1] (setting [3]), 94% in the test on angiotensin II (AT II) [1] (setting [4]) and 94% in the test on angiotensin II (AT II) [1] (setting [5]). The entries for the “Inhibiting effect in percent, 2mcg/kg i.v. AT II” value in the test on angiotensin II (AT II) [1] (setting [3]), in the test on angiotensin II (AT II) [1] (setting [4]) and in the test on angiotensin II (AT II) [1] (setting [5]) were 55%, 93% and 92%, respectively. Besides, in the test on angiotensin II (AT II) [2], the “duration of action in min. 0.1mg/kg i.v.” value was determined as 89 ± 22 min.
